ChEMBL document CHEMBL6134843, “HDAC11 Inhibition as a Potential Therapeutic Strategy for AML: Target Identification, Lead Discovery, Antitumor Potency, and Mechanism Investigation” (J Med Chem, 2025)
Calls of active or inactive are those of the source. No cut-off for these calls is given here.

Legend:
THP-1 = experiment: Induction of cell apoptosis in human THP-1 cells at 100 uM incubated for 48 hrs by Annexin V/DAPI staining based flow cytometry analysis; type: functional
Histone deacetylase 11 = target: T1, Histone deacetylase 11 (Homo sapiens, UniProt Q96DB2); experiment: Inhibition of full length human recombinant HDAC11 (1 to 347 end residues) expressed in Sf9 cells using AcetylETDKmyr-AMC as substrate preincubated with enzyme for 1 hr followed by substrate addition and measured after 30 mins by fluorescence analysis
T1 sequence (Q96DB2 whole entry): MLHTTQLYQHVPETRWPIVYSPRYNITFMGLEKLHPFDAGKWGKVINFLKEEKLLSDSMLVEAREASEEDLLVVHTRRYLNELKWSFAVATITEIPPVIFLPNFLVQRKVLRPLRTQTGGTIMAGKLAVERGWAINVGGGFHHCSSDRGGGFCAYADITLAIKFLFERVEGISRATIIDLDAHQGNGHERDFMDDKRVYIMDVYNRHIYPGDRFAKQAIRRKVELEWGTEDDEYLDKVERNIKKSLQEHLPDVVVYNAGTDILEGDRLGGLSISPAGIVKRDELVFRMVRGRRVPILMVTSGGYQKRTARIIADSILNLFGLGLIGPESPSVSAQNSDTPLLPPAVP

U-937 [1] = experiment: Induction of ferroptosis in human U-937 cells assessed as increase in ferrous ion accumulation at 100 uM incubated for 48 hrs by RhoNox-1 staining based flow cytometry analysis; type: functional, cell-based
OCI-AML2 [2] = experiment: Antiproliferative activity against human OCI-AML2 cells assessed as cell growth inhibition incubated for 2 days by CCK-8 assay; conditions: OCI-AML2, 48 h
OCI-AML-3 = experiment: Induction of cell apoptosis in human OCI-AML-3 cells at 100 uM incubated for 48 hrs by Annexin V/DAPI staining based flow cytometry analysis; type: functional
Histone deacetylase 4 = Histone deacetylase 4 (Homo sapiens, UniProt P56524); experiment: Inhibition of N-terminal GST-tagged C-terminal His-tagged human HDAC4 (627 to 1084 end residues) expressed in baculovirus expression system in Sf9 cells using Boc-Lys-(trifluoroacetyl)-AMC as substrate preincubated with enzyme for 1 hr followed by substrate addition and measured after 30 mins by fluorescence analysis
[3] = target: T2, Protein deacetylase HDAC6 (Homo sapiens, UniProt Q9UBN7); experiment: Inhibition of N-terminal GST-tagged full length human recombinant HDAC6 (1 to 1215 end residues) expressed in Sf9 cells using Boc-Lys-(acetyl)-AMC as substrate preincubated with enzyme for 1 hr followed by substrate addition and measured after 30 mins by fluorescence analysis
T2 sequence (Q9UBN7 whole entry): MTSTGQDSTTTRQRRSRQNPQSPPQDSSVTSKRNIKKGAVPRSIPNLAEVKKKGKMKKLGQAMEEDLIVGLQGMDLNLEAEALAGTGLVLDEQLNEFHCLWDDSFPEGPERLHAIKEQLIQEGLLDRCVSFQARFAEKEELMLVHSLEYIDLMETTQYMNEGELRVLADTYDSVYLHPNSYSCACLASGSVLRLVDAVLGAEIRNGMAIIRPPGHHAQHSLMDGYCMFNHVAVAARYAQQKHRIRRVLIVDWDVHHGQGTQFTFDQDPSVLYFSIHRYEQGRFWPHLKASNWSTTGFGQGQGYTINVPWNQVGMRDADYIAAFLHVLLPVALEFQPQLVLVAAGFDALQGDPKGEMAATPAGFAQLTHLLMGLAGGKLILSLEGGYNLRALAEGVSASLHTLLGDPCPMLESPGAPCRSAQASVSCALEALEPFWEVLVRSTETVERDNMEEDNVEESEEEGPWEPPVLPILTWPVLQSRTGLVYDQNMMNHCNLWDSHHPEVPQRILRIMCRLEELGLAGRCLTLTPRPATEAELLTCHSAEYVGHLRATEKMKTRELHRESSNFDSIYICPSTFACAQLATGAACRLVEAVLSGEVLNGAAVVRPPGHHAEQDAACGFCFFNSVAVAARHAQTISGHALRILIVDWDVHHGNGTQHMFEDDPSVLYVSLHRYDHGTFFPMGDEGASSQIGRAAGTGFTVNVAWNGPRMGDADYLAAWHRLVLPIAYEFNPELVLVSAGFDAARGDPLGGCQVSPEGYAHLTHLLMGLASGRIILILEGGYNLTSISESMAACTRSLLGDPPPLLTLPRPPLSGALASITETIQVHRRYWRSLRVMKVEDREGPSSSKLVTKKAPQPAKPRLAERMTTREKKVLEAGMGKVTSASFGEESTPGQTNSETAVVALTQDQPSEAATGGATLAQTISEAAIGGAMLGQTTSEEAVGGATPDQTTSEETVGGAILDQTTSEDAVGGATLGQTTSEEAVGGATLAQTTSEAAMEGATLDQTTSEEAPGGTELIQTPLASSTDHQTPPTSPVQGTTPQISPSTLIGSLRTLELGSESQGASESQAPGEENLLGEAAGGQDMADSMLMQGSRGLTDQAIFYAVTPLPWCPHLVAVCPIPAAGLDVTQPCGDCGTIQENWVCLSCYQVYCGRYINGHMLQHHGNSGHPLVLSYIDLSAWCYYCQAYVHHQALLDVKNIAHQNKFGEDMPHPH

Histone deacetylase 1 = Histone deacetylase 1 (Homo sapiens, UniProt Q13547); experiment: Inhibition of C-terminal 6xHis/FLAG-tagged full length human recombinant HDAC1 (1 to 482 end residues) expressed in Sf9 cells using Boc-Lys-(acetyl)-AMC as substrate preincubated with enzyme for 1 hr followed by substrate addition and measured after 30 mins by fluorescence analysis
U-937 [4] = experiment: Induction of ferroptosis in human U-937 cells assessed as increase in lipid peroxidation accumulation at 100 uM incubated for 48 hrs by C11-BODIPY 581/591 staining based flow cytometry analysis; type: functional, cell-based
OCI-AML2 [5] = experiment: Induction of ferroptosis in human OCI-AML2 cells assessed as increase in ferrous ion accumulation at 100 uM incubated for 48 hrs by RhoNox-1 staining based flow cytometry analysis; type: functional, cell-based
OCI-AML2 [6] = experiment: Induction of ferroptosis in human OCI-AML2 cells assessed as increase in ferrous ion accumulation at 5 uM incubated for 48 hrs by RhoNox-1 staining based flow cytometry analysis; type: functional, cell-based
U-937 [7] = experiment: Antitumor activity against human U-937 cells assessed as cell growth inhibition incubated for 2 days by CCK-8 assay; conditions: U-937, 48 h
[8] = target: T3, Histone deacetylase 11 (Homo sapiens) (UniProt Q96DB2); experiment: Inhibition of HDAC11 in human U-937 cells assessed as increase in SHMT2 fatty acylation level in presence of Alk14 at 100 uM incubated for 6 hrs by Western blot analysis; type: cell-based
T3 sequence (whole entry): T1 sequence (Q96DB2 whole entry)

U-937 [9] = experiment: Induction of ferroptosis in human U-937 cells assessed as increase in ferrous ion accumulation at 5 uM incubated for 48 hrs by RhoNox-1 staining based flow cytometry analysis; type: functional, cell-based
Histone deacetylase 8 = target: T4, Histone deacetylase 8 (Homo sapiens, UniProt Q9BY41); experiment: Inhibition of C-terminal His-tagged full length human recombinant HDAC8 (1 to 377 end residues) expressed in Sf9 cells using Boc-Lys-(trifluoroacetyl)-AMC as substrate preincubated with enzyme for 1 hr followed by substrate addition and measured after 30 mins by fluorescence analysis
T4 sequence (Q9BY41 whole entry): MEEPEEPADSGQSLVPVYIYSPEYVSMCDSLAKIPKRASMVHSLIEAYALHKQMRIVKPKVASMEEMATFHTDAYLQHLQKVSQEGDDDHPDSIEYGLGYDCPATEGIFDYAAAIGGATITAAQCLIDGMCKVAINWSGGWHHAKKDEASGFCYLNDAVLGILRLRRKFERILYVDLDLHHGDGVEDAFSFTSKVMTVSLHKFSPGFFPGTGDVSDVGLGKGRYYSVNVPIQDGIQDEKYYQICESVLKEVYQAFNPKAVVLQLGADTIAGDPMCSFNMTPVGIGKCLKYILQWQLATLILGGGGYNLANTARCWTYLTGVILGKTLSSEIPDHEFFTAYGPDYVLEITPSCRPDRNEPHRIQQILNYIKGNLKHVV

[10] = Antitumor activity against mouse MLL-AF9 cells allografted in female C57BL/6 mouse model assessed as GFP positive leukemic cells in peripheral blood at 50 mg/kg, ip administered once daily for 26 days by FITC staining based analysis (reference value: 30.6 %); type: functional; conditions: time 26 day
[11] = Antitumor activity against mouse MLL-AF9 cells allografted in female C57BL/6 mouse model assessed as GFP positive leukemic cells in peripheral blood at 50 mg/kg, ip administered once daily for 32 days by FITC staining based analysis (reference value: 72.5 %); type: functional; conditions: time 32 day

Sequence of Histone deacetylase 4 (P56524 whole entry): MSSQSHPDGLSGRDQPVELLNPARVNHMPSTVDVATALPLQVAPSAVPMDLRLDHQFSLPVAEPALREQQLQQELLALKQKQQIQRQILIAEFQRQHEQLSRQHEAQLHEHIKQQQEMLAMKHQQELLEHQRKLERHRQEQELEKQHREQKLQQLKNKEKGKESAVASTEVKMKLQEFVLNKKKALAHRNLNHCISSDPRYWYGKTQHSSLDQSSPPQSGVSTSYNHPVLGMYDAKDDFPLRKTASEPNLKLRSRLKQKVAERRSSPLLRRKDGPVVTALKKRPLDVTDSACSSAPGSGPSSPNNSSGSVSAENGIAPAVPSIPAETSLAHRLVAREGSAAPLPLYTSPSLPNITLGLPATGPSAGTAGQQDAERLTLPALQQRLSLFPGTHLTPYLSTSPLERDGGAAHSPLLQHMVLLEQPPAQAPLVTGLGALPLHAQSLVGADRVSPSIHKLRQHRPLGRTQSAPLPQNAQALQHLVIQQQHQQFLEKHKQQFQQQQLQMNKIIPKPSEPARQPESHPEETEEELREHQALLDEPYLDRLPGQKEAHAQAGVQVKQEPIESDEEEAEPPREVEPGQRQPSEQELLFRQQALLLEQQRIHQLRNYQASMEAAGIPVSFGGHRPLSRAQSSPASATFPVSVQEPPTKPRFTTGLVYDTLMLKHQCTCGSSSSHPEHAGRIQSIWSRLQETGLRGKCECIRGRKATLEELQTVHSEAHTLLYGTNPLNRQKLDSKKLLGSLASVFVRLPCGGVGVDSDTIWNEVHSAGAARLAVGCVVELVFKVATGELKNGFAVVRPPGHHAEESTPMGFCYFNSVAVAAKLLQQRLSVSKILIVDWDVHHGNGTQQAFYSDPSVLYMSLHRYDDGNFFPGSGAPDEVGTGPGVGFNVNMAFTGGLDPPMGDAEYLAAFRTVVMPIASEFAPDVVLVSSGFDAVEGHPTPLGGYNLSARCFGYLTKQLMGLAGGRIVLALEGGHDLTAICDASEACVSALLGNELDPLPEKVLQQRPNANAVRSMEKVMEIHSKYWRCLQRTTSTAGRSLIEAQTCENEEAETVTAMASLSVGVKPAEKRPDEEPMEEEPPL
Sequence of Histone deacetylase 1 (Q13547 whole entry): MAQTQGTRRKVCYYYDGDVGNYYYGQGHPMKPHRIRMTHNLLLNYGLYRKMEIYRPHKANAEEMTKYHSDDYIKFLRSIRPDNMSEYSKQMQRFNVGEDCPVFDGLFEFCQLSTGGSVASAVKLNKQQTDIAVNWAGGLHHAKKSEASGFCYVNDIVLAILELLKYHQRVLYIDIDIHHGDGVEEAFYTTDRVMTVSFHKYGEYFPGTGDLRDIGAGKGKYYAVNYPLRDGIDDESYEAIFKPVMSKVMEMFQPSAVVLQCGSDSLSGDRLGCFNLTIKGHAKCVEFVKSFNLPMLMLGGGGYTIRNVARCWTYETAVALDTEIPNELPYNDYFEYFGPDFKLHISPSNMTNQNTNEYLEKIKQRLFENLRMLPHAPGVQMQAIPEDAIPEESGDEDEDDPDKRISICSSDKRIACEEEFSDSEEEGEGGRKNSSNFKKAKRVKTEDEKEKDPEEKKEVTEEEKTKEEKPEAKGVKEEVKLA

IC50 (Histone deacetylase 11) [µM] | IC50 (OCI-AML2 [2]) [µM] | IC50 (Histone deacetylase 4) [µM] | IC50 [3] [µM] | IC50 (Histone deacetylase 1) [µM] | IC50 (U-937 [7]) [µM] | inhibition [8] | IC50 (Histone deacetylase 8) [µM] | Compound | Activity (THP-1) | Activity (U-937 [1]) | Activity (OCI-AML-3) | Activity (U-937 [4]) | Activity (OCI-AML2 [5]) | Activity (OCI-AML2 [6]) | Activity (U-937 [9]) | Activity [10] [%] | Activity [11] [%]
0.37 | ~150 | > 100 | 77.6 | 92.5 | ~150 | Active | > 100 | CCCCCCCCCCCCCCCCNNC(=O)c1cccs1 | Active | Active | Active | Active | Active | Active | Active |  | 
 |  | > 100 |  |  |  |  |  | O=C(NO)c1cccc2[nH]c(C#Cc3ccccc3)cc12 |  |  |  |  |  |  |  |  | 
 |  |  |  |  |  |  |  | Nc1ccn([C@@H]2O[C@H](CO)[C@@H](O)[C@@H]2O)c(=O)n1 [CYTARABINE] |  |  |  |  |  |  |  | 5.81 | 13.2
